According to PubChem BioAssay (NCI):
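Cells were grown in 96-well plates and exposed to each compound for 48 hours at five concentrations; endpoints were interpolated linearly between bracketing concentrations, or set to the highest concentration if not reached. TGI marks complete inhibition of growth.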

Assays:
Experiment in all cases: DTP human tumour cell line panel, 48 h
[1] = tested on: 786-0 renal
[2] = tested on: A498 renal
[3] = tested on: A549 NSCLC
[4] = tested on: ACHN renal
[5] = tested on: CCRF-CEM leukemia
[6] = tested on: COLO 205 colon
[7] = tested on: DLD-1 colon
[8] = tested on: DMS 273 small cell lung
[9] = tested on: EKVX NSCLC
[10] = tested on: HCT-116 colon
[11] = tested on: HCT-15 colon
[12] = tested on: HL-60(TB) leukemia
[13] = tested on: HOP-18 NSCLC
[14] = tested on: HOP-62 NSCLC
[15] = tested on: HOP-92 NSCLC
[16] = tested on: HT29 colon
[17] = tested on: IGROV1 ovarian
[18] = tested on: K-562 leukemia
[19] = tested on: KM12 colon
[20] = tested on: KM20L2 colon
[21] = tested on: LOX IMVI melanoma
[22] = tested on: LXFL 529 NSCLC
[23] = tested on: M14 melanoma
[24] = tested on: M19-MEL melanoma
[25] = tested on: MALME-3M melanoma
[26] = tested on: MOLT-4 leukemia
[27] = tested on: NCI-H226 lung
[28] = tested on: NCI-H23 lung
[29] = tested on: NCI-H460 lung
[30] = tested on: NCI-H522 lung
[31] = tested on: OVCAR-3 ovarian
[32] = tested on: OVCAR-4 ovarian
[33] = tested on: OVCAR-5 ovarian
[34] = tested on: OVCAR-8 ovarian
[35] = tested on: RPMI-8226 leukemia
[36] = tested on: RXF 393 renal
[37] = tested on: SF-268 CNS
[38] = tested on: SF-295 CNS
[39] = tested on: SF-539 CNS
[40] = tested on: SK-MEL-2 melanoma
[41] = tested on: SK-MEL-28 melanoma
[42] = tested on: SK-OV-3 ovarian
[43] = tested on: SN12C renal
[44] = tested on: SNB-19 CNS
[45] = tested on: SNB-78 CNS
[46] = tested on: SR leukemia
[47] = tested on: SW-620 colon
[48] = tested on: TK-10 renal
[49] = tested on: U251 CNS
[50] = tested on: UACC-257 melanoma
[51] = tested on: UO-31 renal
[52] = tested on: XF 498 CNS
[53] = tested on: CAKI-1 renal
[54] = tested on: DMS 114 small cell lung
[55] = tested on: HCC-2998 colon
[56] = tested on: RXF-631 renal
[57] = tested on: SNB-75 CNS
[58] = tested on: UACC-62 melanoma
[59] = tested on: BT-549 breast
[60] = tested on: DU-145 prostate
[61] = tested on: MCF7 breast
[62] = tested on: MDA-MB-231 breast
[63] = tested on: MDA-MB-435
[64] = tested on: MDA-N
[65] = tested on: NCI/ADR-RES ovarian
[66] = tested on: PC-3 prostate
[67] = tested on: SK-MEL-5 melanoma

Compound: Oc1ccc(I)c2cccnc12
- TGI [1]: > 100 µM
- TGI [2]: > 100 µM
- TGI [3]: > 100 µM
- TGI [4]: > 100 µM
- TGI [5]: 9.68 µM
- TGI [6]: 79 µM
- TGI [7]: > 100 µM
- TGI [8]: 14.1 µM
- TGI [9]: 65.2 µM
- TGI [10]: > 100 µM
- TGI [11]: > 100 µM
- TGI [12]: 5.76 µM
- TGI [13]: 47.7 µM
- TGI [14]: > 100 µM
- TGI [15]: > 100 µM
- TGI [16]: > 100 µM
- TGI [17]: 39.3 µM
- TGI [18]: 23.8 µM
- TGI [19]: > 100 µM
- TGI [20]: > 100 µM
- TGI [21]: 46.3 µM
- TGI [22]: > 100 µM
- TGI [23]: 25.4 µM
- TGI [24]: 76.8 µM
- TGI [25]: 61.8 µM
- TGI [26]: > 100 µM
- TGI [27]: 41.8 µM
- TGI [28]: 55.2 µM
- TGI [29]: 20.2 µM
- TGI [30]: 7.2 µM
- TGI [31]: > 100 µM
- TGI [32]: > 100 µM
- TGI [33]: > 100 µM
- TGI [34]: > 100 µM
- TGI [35]: 62.9 µM
- TGI [36]: 33.1 µM
- TGI [37]: 72.1 µM
- TGI [38]: 30.1 µM
- TGI [39]: > 100 µM
- TGI [40]: 71.4 µM
- TGI [41]: > 100 µM
- TGI [42]: 49.5 µM
- TGI [43]: > 100 µM
- TGI [44]: > 100 µM
- TGI [45]: > 100 µM
- TGI [46]: 14.8 µM
- TGI [47]: > 100 µM
- TGI [48]: > 100 µM
- TGI [49]: > 100 µM
- TGI [50]: 73.8 µM
- TGI [51]: 32.5 µM
- TGI [52]: > 100 µM

Compound: O=C1C=C(Nc2cc(Cl)ccc2Cl)c2ccccc2C1=O
- TGI [1]: > 100 µM
- TGI [2]: 52 µM
- TGI [3]: > 100 µM
- TGI [4]: > 100 µM
- TGI [53]: 75.5 µM
- TGI [6]: > 100 µM
- TGI [7]: > 100 µM
- TGI [54]: 76.2 µM
- TGI [8]: 68.6 µM
- TGI [9]: > 100 µM
- TGI [55]: > 100 µM
- TGI [10]: > 100 µM
- TGI [11]: > 100 µM
- TGI [12]: 40.9 µM
- TGI [13]: 70 µM
- TGI [14]: 72.9 µM
- TGI [15]: 69.7 µM
- TGI [16]: > 100 µM
- TGI [17]: > 100 µM
- TGI [18]: 36.8 µM
- TGI [19]: 55.7 µM
- TGI [20]: > 100 µM
- TGI [23]: 38.9 µM
- TGI [24]: 29.2 µM
- TGI [25]: 39.4 µM
- TGI [27]: 47.8 µM
- TGI [28]: 39.3 µM
- TGI [29]: 88.9 µM
- TGI [31]: 63.7 µM
- TGI [32]: > 100 µM
- TGI [33]: > 100 µM
- TGI [34]: 56.9 µM
- TGI [35]: 68 µM
- TGI [36]: > 100 µM
- TGI [56]: > 100 µM
- TGI [37]: > 100 µM
- TGI [38]: 79.3 µM
- TGI [39]: > 100 µM
- TGI [40]: 33.9 µM
- TGI [41]: > 100 µM
- TGI [42]: > 100 µM
- TGI [43]: > 100 µM
- TGI [44]: > 100 µM
- TGI [57]: 70.3 µM
- TGI [45]: > 100 µM
- TGI [47]: > 100 µM
- TGI [49]: > 100 µM
- TGI [50]: 41.8 µM
- TGI [58]: 31.4 µM
- TGI [51]: > 100 µM

Compound: COc1cc(O)c2c(c1C)C(C)(O)c1c(C)coc1C2=O (stereo unspecified)
- TGI [2]: > 100 µM
- TGI [3]: > 100 µM
- TGI [4]: > 100 µM
- TGI [54]: > 100 µM
- TGI [9]: > 100 µM
- TGI [10]: > 100 µM
- TGI [12]: > 100 µM
- TGI [14]: > 100 µM
- TGI [15]: > 100 µM
- TGI [16]: > 100 µM
- TGI [17]: > 100 µM
- TGI [19]: > 100 µM
- TGI [23]: > 100 µM
- TGI [24]: > 100 µM
- TGI [27]: > 100 µM
- TGI [28]: > 100 µM
- TGI [29]: > 100 µM
- TGI [33]: > 100 µM
- TGI [34]: > 100 µM
- TGI [36]: > 100 µM
- TGI [38]: > 100 µM
- TGI [41]: > 100 µM
- TGI [42]: > 100 µM
- TGI [44]: > 100 µM
- TGI [45]: > 100 µM
- TGI [46]: > 100 µM
- TGI [48]: > 100 µM
- TGI [49]: > 100 µM
- TGI [50]: > 100 µM
- TGI [58]: > 100 µM
- TGI [51]: > 100 µM

Compound: O=C(N[C@H](CO)[C@H](O)c1ccc([N+](=O)[O-])cc1)C(Cl)Cl
- TGI [1]: > 100 µM
- TGI [2]: > 100 µM
- TGI [3]: > 100 µM
- TGI [4]: > 100 µM
- TGI [59]: > 100 µM
- TGI [53]: > 100 µM
- TGI [5]: > 100 µM
- TGI [6]: > 100 µM
- TGI [7]: > 100 µM
- TGI [54]: > 100 µM
- TGI [8]: > 100 µM
- TGI [60]: > 100 µM
- TGI [9]: > 100 µM
- TGI [55]: > 100 µM
- TGI [10]: > 100 µM
- TGI [11]: > 100 µM
- TGI [12]: > 100 µM
- TGI [14]: > 100 µM
- TGI [15]: > 100 µM
- TGI [16]: > 100 µM
- TGI [17]: > 100 µM
- TGI [18]: > 100 µM
- TGI [19]: > 100 µM
- TGI [20]: > 100 µM
- TGI [21]: > 100 µM
- TGI [22]: > 100 µM
- TGI [23]: > 100 µM
- TGI [24]: > 100 µM
- TGI [25]: > 100 µM
- TGI [61]: > 100 µM
- TGI [62]: > 100 µM
- TGI [63]: > 100 µM
- TGI [64]: > 100 µM
- TGI [26]: > 100 µM
- TGI [27]: > 100 µM
- TGI [28]: > 100 µM
- TGI [29]: > 100 µM
- TGI [30]: > 100 µM
- TGI [65]: > 100 µM
- TGI [31]: > 100 µM
- TGI [32]: > 100 µM
- TGI [33]: > 100 µM
- TGI [34]: > 100 µM
- TGI [66]: > 100 µM
- TGI [35]: > 100 µM
- TGI [36]: > 100 µM
- TGI [37]: > 100 µM
- TGI [38]: > 100 µM
- TGI [39]: > 100 µM
- TGI [40]: > 100 µM
- TGI [41]: > 100 µM
- TGI [67]: > 100 µM
- TGI [42]: > 100 µM
- TGI [43]: > 100 µM
- TGI [44]: > 100 µM
- TGI [57]: > 100 µM
- TGI [46]: > 100 µM
- TGI [47]: > 100 µM
- TGI [48]: > 100 µM
- TGI [49]: > 100 µM
- TGI [50]: > 100 µM
- TGI [58]: > 100 µM
- TGI [51]: > 100 µM
